In ChEMBL document CHEMBL3992514, “Synthesis, biological characterisation and structure activity relationships of aromatic bisamidines active against Plasmodium falciparum” (Eur J Med Chem, 2017):

Columns and labels:
Plasmodium falciparum [1] = assay: Antiparasitic activity against drug-sensitive Plasmodium falciparum 3D7 infected in erythrocytes assessed as growth inhibition after 48 hrs by SYBR green 1 dye-based flow cytometry; format: functional, cell-based; conditions: 3D7, 48 h
HEK293 = assay: Cytotoxicity against HEK293 cells assessed as decrease in cell viability after 24 hrs by Alamar blue assay; format: ADME, cell-based; conditions: Homo sapiens, HEK293, 24 h
Plasmodium falciparum [2] = assay: Antiparasitic activity against drug-resistant Plasmodium falciparum Dd2 infected in erythrocytes assessed as growth inhibition after 48 hrs by [3H]-hypoxanthine incorporation assay; format: functional, cell-based
[3] = Selectivity index, ratio of IC50 for HEK293 cells to IC50 for drug-resistant Plasmodium falciparum Dd2 infected in erythrocytes; conditions: human
[4] = Selectivity index, ratio of IC50 for HEK293 cells to IC50 for drug-sensitive Plasmodium falciparum 3D7 infected in erythrocytes; conditions: human

SMILES	IC50 (Plasmodium falciparum [1]) [µM]	IC50 (HEK293) [µM]	IC50 (Plasmodium falciparum [2]) [µM]	selectivity ratio [3]	selectivity ratio [4]
N=C(N)c1ccc(-c2cc(CC(=O)NCCN3CCOCC3)c(-c3ccc(C(=N)N)cc3)o2)cc1	> 10	> 50	> 10		
N=C(N)c1ccc(-c2cc(CC(=O)NCC3CCCCC3)c(-c3ccc(C(=N)N)cc3)o2)cc1		> 50	2.42	> 20	
CONC(=N)c1ccc(-c2oc(-c3ccc(C(=N)NOC)cc3)c(C)c2C)cc1	> 1	> 50	10.6	> 5	
CSCCCNC(=O)Cc1cc(-c2ccc(C(=N)N)cc2)oc1-c1ccc(C(=N)N)cc1	6.61	> 50	5.43	> 10	> 7
CC(C)OCc1c(-c2ccc(C(=N)N)cc2)oc(-c2ccc(C(=N)N)cc2)c1COC(C)C	1.08	> 50	1.2	> 42	> 46
CN(C)CCCCNC(=O)Cc1cc(-c2ccc(C(=N)N)cc2)oc1-c1ccc(C(=N)N)cc1	> 10	> 50	> 10		
N=C(N)c1ccc(-c2cc(CC(=O)N3CCN(CCO)CC3)c(-c3ccc(C(=N)N)cc3)o2)cc1	> 10	> 50	> 10		
CNC(=O)Cc1cc(-c2ccc(C(=N)N)cc2)oc1-c1ccc(C(=N)N)cc1	5.41	> 50	3.07	> 16	> 9
N=C(N)c1ccc(-c2cc(CC(=O)N3CCCCC3)c(-c3ccc(C(=N)N)cc3)o2)cc1	5.13	> 50			> 9
Cc1c(-c2ccc(C(=N)N)cc2)oc(-c2ccc(C(=N)N)cc2)c1C	0.033	74	0.06	1230	2240
CN(C)CCNC(=O)Cc1cc(-c2ccc(C(=N)N)cc2)oc1-c1ccc(C(=N)N)cc1	> 10	> 50	> 10		
CN(C)CCCNC(=O)Cc1cc(-c2ccc(C(=N)N)cc2)oc1-c1ccc(C(=N)N)cc1	> 10	> 50	> 10		
CCNC(=N)c1ccc(-c2oc(-c3ccc(C(=N)NCC)cc3)c(C)c2C)cc1	0.02	33.3	0.03	1110	1660
COCc1c(-c2ccc(C(=N)N)cc2)oc(-c2ccc(C(=N)N)cc2)c1COC	1.04	> 50	0.9	> 56	> 48
Cc1c(-c2ccc(C(=N)NCC(C)C)cc2)oc(-c2ccc(C(=N)NCC(C)C)cc2)c1C	0.038	33.1	0.15	220	870
N=C(N)c1ccc(NC(=O)Nc2ccc(C(=N)N)cc2)cc1	0.046	266	0.21		5780
Cc1c(-c2ccc(C(=N)NC(C)C)cc2)oc(-c2ccc(C(=N)NC(C)C)cc2)c1C	0.038	309	0.09	3430	8130
N=C(N)c1ccc(-c2cc(CC(=O)N3CCN(c4ncccn4)CC3)c(-c3ccc(C(=N)N)cc3)o2)cc1	7.54	> 50	17.4	> 3	> 7
Cc1c(-c2ccc(C(=N)NO)cc2)oc(-c2ccc(C(=N)NO)cc2)c1C	> 1	> 50	7.15	> 10	
CN1CCN(C(=O)Cc2cc(-c3ccc(C(=N)N)cc3)oc2-c2ccc(C(=N)N)cc2)CC1	> 10	> 50	> 10		

SMILES	IC50 (Plasmodium falciparum [1]) [µM]	IC50 (HEK293) [µM]	IC50 (Plasmodium falciparum [2]) [µM]	selectivity ratio [3]	selectivity ratio [4]
CN1CCN(CCNC(=O)Cc2cc(-c3ccc(C(=N)N)cc3)oc2-c2ccc(C(=N)N)cc2)CC1	> 10	> 50			
CCCOCc1c(-c2ccc(C(=N)N)cc2)oc(-c2ccc(C(=N)N)cc2)c1COCCC	0.39	> 50	0.31	> 128	> 161
CCN(CC)CCN=C(Nc1ccc(C(=N)N)cc1)Nc1ccc(C(=N)N)cc1	> 10	> 50	> 10		
N=C(N)c1ccc(-c2cc(CC(=O)N3CCN(C(c4ccc(F)cc4)c4ccc(F)cc4)CC3)c(-c3ccc(C(=N)N)cc3)o2)cc1	1.7	> 50	6.63	> 8	> 30
N=C(N)c1ccc(NC(=NCCc2ccccc2)Nc2ccc(C(=N)N)cc2)cc1	> 10	> 50	> 10		
N=C(N)c1ccc(-c2cc(CC(=O)NCCc3ccccc3)c(-c3ccc(C(=N)N)cc3)o2)cc1	1.18	> 50	1.19	> 42	> 42
N=C(N)c1ccc(-c2cc(CC(=O)N3CCN(C(=O)c4ccccc4)CC3)c(-c3ccc(C(=N)N)cc3)o2)cc1	> 10	> 50	> 10		
CCN(CC)CCNC(=O)Cc1cc(-c2ccc(C(=N)N)cc2)oc1-c1ccc(C(=N)N)cc1	> 10	> 50	> 10		
N=C(N)c1ccc(-c2cc(CC(=O)N3CCN(C(c4ccccc4)c4ccccc4)CC3)c(-c3ccc(C(=N)N)cc3)o2)cc1	1.43	> 50	5.33	> 10	> 35
N=C(N)c1ccc(-c2cc(CC(=O)NCCC(c3ccccc3)c3ccccc3)c(-c3ccc(C(=N)N)cc3)o2)cc1	1.4	> 50	1.47	> 34	> 36
CN(C)CCN=C(Nc1ccc(C(=N)N)cc1)Nc1ccc(C(=N)N)cc1	> 10	> 50	> 10		
N=C(N)c1ccc(-c2cc(CC(=O)NCC(c3ccccc3)c3ccccc3)c(-c3ccc(C(=N)N)cc3)o2)cc1	1.39	> 50	1.43	> 35	> 36
CCOCc1c(-c2ccc(C(=N)N)cc2)oc(-c2ccc(C(=N)N)cc2)c1COCC	1.19	> 50	0.85	> 59	> 42
N=C(N)c1ccc(-c2cc(CC(=O)N3CCOCC3)c(-c3ccc(C(=N)N)cc3)o2)cc1	> 10	> 50	> 10		
N=C(N)c1ccc(NC(=NCCN2CCCCC2)Nc2ccc(C(=N)N)cc2)cc1	> 10	> 50	> 10		
N=C(N)c1ccc(-c2cc(CC(=O)NCCCc3ccccc3)c(-c3ccc(C(=N)N)cc3)o2)cc1	0.77	> 50	1.67	> 30	> 65
N=C(N)c1ccc(-c2cc(CC(=O)NCCN3CCCCC3)c(-c3ccc(C(=N)N)cc3)o2)cc1	> 10	> 50	> 10		
COCc1c(-c2ccc(C(=N)N)cc2)oc(-c2ccc(C(=N)N)cc2)c1Cl	0.16	209	0.09	2320	1310
CN(C)C(=O)Cc1cc(-c2ccc(C(=N)N)cc2)oc1-c1ccc(C(=N)N)cc1	5.76	> 50	3.83	> 13	> 8
N=C(N)c1ccc(-c2cc(CC(=O)NCCCO)c(-c3ccc(C(=N)N)cc3)o2)cc1	> 10	> 50	22.2	> 3	
